Data published in the supplement of paper PMC6045584.
± gives the standard deviation of the averaged measurements.

Key:
[1] = compound: CC(=O)c1c(C)c2cnc(Nc3ccc(N4CCNCC4)cn3)nc2n(C2CCCC2)c1=O; assay: surviving fraction relative to DMSO-only wells; higher = less growth inhibition; conditions: exposure time: 5 days
How it was run: (§1)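 Lines were retained only if, across three screens, replicate Pearson r was >0.7 and median Z' was >0.3. Viability was measured as CellTiter-Glo luminescence and reported as surviving fraction relative to the median of DMSO-only wells. Readings followed 10 minutes at room temperature, after log-phase tumour cells seeded at 250–500 per well in 384-well plates had been exposed, from 24 hours after seeding, continuously for five days to inhibitors at 0.5, 1, 5, 10, 50, 100, 500 and 1000 nM.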

[2] = compound: CC(=O)NCC(=O)N1[C@@H]2CC[C@H]1c1ccc(Nc3ncc(C(F)(F)F)c(NC4CCC4)n3)cc12; assay: as above; conditions: exposure time: 5 days
How it was run: as §1

Test System	surviving fraction ([1]; 0.5 nM)	surviving fraction ([1]; 1 nM)	surviving fraction ([1]; 5 nM)	surviving fraction ([1]; 10 nM)	surviving fraction ([1]; 50 nM)	surviving fraction ([1]; 100 nM)	surviving fraction ([1]; 500 nM)	surviving fraction ([1]; 1000 nM)	surviving fraction ([2]; 0.5 nM)	surviving fraction ([2]; 1 nM)	surviving fraction ([2]; 5 nM)	surviving fraction ([2]; 10 nM)	surviving fraction ([2]; 50 nM)	surviving fraction ([2]; 100 nM)	surviving fraction ([2]; 500 nM)	surviving fraction ([2]; 1000 nM)
HUO3N1 BONE	1.01 ± 0.041	1.04 ± 0.032	1.05 ± 0.035	1.01 ± 0.066	1.04 ± 0.024	1.1 ± 0.016	1.01 ± 0.05	1.03 ± 0.022	1.01 ± 0.064	0.997 ± 0.054	1.01 ± 0.021	1.02 ± 0.036	1.03 ± 0.076	0.972 ± 0.036	0.737 ± 0.064	0.533 ± 0.037
JIMT1 BREAST	0.959 ± 0.013	0.9905 ± 0.0018	0.993 ± 0.024	0.964 ± 0.027	1.1 ± 0.03	1 ± 0.031	1.05 ± 0.014	1.01 ± 0.032	0.996 ± 0.044	1.01 ± 0.032	1 ± 0.036	0.97 ± 0.02	1.03 ± 0.053	0.763 ± 0.024	0.705 ± 0.0076	0.593 ± 0.029
JURKAT HAEMATOPOIETIC AND LYMPHOID TISSUE	1.09 ± 0.017	1.11 ± 0.021	1.0573 ± 0.00058	1.07 ± 0.033	1.03 ± 0.034	1.05 ± 0.013	0.847 ± 0.032	0.793 ± 0.018	1.07 ± 0.015	1.06 ± 0.028	1.07 ± 0.012	1.03 ± 0.03	0.286 ± 0.012	0.677 ± 0.018	0.395 ± 0.01	0.305 ± 0.019
KPD BONE	0.924 ± 0.081	0.939 ± 0.029	1.04 ± 0.05	0.961 ± 0.027	0.99 ± 0.069	0.993 ± 0.072	0.775 ± 0.026	0.679 ± 0.041	0.977 ± 0.019	0.987 ± 0.026	0.991 ± 0.07	1.04 ± 0.093	0.903 ± 0.003	0.737 ± 0.033	0.346 ± 0.009	0.124 ± 0.0044
MCF7 BREAST	0.965 ± 0.043	0.8934 ± 0.0072	0.891 ± 0.03	0.902 ± 0.026	0.956 ± 0.048	0.934 ± 0.01	0.925 ± 0.037	0.899 ± 0.032	0.864 ± 0.018	0.858 ± 0.028	0.808 ± 0.034	0.826 ± 0.021	0.776 ± 0.018	0.741 ± 0.027	0.656 ± 0.035	0.549 ± 0.026
MDAMB134 BREAST	1.031 ± 0.0085	1.07 ± 0.023	1.1 ± 0.013	1.07 ± 0.04	1.154 ± 0.0057	1.26 ± 0.22	1.28 ± 0.12	1.25 ± 0.11	0.998 ± 0.048	1.07 ± 0.37	1.01 ± 0.04	1.02 ± 0.11	0.992 ± 0.041	1.25 ± 0.18	1.13 ± 0.12	1.31 ± 0.1
MDAMB361 BREAST	0.924 ± 0.046	0.861 ± 0.13	0.882 ± 0.09	0.825 ± 0.053	0.881 ± 0.083	0.86 ± 0.032	0.861 ± 0.23	0.866 ± 0.021	0.96 ± 0.044	0.939 ± 0.041	0.88 ± 0.038	0.873 ± 0.02	0.922 ± 0.11	1.1 ± 0.05	1.09 ± 0.075	0.928 ± 0.093
MDAMB453 BREAST	1.05 ± 0.018	1.04 ± 0.043	1.07 ± 0.026	1.11 ± 0.044	1.15 ± 0.1	1.11 ± 0.061	1 ± 0.026	1.01 ± 0.071	1.03 ± 0.021	1.05 ± 0.034	1.01 ± 0.046	1.07 ± 0.032	0.794 ± 0.091	0.725 ± 0.094	0.541 ± 0.038	0.413 ± 0.015
MDAMB468 BREAST	1.07 ± 0.03	0.991 ± 0.044	1.07 ± 0.03	1 ± 0.041	1.1 ± 0.038	1.12 ± 0.032	1.05 ± 0.057	1.03 ± 0.064	0.977 ± 0.023	1.04 ± 0.046	1.05 ± 0.026	0.987 ± 0.041	1.03 ± 0.047	0.507 ± 0.047	0.146 ± 0.01	0.151 ± 0.018
MG63 BONE	1.033 ± 0.0085	1.01 ± 0.044	1.039 ± 0.0042	1.04 ± 0.021	1.07 ± 0.035	1.07 ± 0.031	0.914 ± 0.02	0.868 ± 0.034	0.974 ± 0.0053	0.966 ± 0.015	0.99 ± 0.024	0.987 ± 0.013	0.816 ± 0.003	0.594 ± 0.021	0.298 ± 0.021	0.227 ± 0.007
NCIH441 LUNG	1.16 ± 0.055	1.1 ± 0.056	1.064 ± 0.0076	1.07 ± 0.02	1.08 ± 0.093	1.09 ± 0.052	1.15 ± 0.14	1 ± 0.13	0.945 ± 0.064	0.954 ± 0.056	0.939 ± 0.065	0.927 ± 0.12	0.991 ± 0.022	0.856 ± 0.049	0.626 ± 0.08	0.588 ± 0.0087
